Laboratory results published in patent US8735584B2 (Merck Patent GmbH, priority 2008, dated 2014).

Key:
Format in all cases: biochemical
AKT1 = target: T1, AKT1 (Homo sapiens, UniProt P31749); experiment: Desktop Profiler kinase panel, AKT1; conditions: 10 micromolar concentration of the compound; read-out: Percent Inhibition AKT1
T1 construct: purchased Caliper Life Sciences
Protocol: (§1) The Aurora assays described here are performed on two Caliper Life Sciences systems: the LC3000 and the Desktop Profiler. These provide data on enzyme activity via measurement of the relative amounts of phosphorylated or unphosphorylated fluorescently labelled substrate peptide at the end of an enzymatic reaction. These different states of peptide are resolved by applying a potential difference across the sample. The presence of the charged phosphate group on the product (as opposed to the substrate) causes a different peptide mobility between the two peptides. This is visualized by excitation of the fluorescent label on the substrate and product peptides and represented as peaks within the analysis software.
(§2) The Desktop Profiler utilizes the same principle as the LC3000 for calculating percentage conversion of a substrate to product. Caliper Life Sciences provides proprietary flash frozen pre-made 384 well plates containing selected kinases. Each column in the 384 well plate contains a particular selected kinase. A second plate, the ‘substrate plate’ contains a mix of fluorescently labeled peptide substrate and ATP. […]
(§3) Reading of the plate in the Profiler is identical to the LC3000, and the ratio between substrate and product peaks provides the activity of the enzyme in that well. […]

AKT2 = target: T2, AKT2 (Homo sapiens, UniProt P31751); experiment: Desktop Profiler kinase panel, AKT2; conditions: 10 micromolar concentration of the compound; read-out: Percent Inhibition AKT2
T2 construct: purchased Caliper Life Sciences
T2 sequence (P31751 whole entry, species assumed): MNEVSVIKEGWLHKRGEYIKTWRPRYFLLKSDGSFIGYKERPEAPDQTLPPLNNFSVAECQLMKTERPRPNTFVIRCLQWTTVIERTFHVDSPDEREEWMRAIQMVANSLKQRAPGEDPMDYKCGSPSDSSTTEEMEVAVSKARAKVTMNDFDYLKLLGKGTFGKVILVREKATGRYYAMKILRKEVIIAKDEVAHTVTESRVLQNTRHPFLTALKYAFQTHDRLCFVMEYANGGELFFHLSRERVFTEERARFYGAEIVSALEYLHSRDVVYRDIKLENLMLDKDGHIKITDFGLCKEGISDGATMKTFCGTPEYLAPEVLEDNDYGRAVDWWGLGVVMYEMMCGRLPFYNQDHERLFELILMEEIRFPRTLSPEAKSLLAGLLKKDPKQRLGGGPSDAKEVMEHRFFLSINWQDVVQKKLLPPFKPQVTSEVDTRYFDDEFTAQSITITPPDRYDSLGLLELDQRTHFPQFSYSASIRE
Protocol: as §1
(§4) The Desktop Profiler utilizes the same principle as the LC3000 for calculating percentage conversion of a substrate to product. Caliper Life Sciences provides proprietary flash frozen pre-made 384 well plates containing selected kinases. Each column in the 384 well plate contains a particular selected kinase. A second plate, the ‘substrate plate’ contains a mix of fluorescently labeled peptide substrate and ATP. These are arranged in columns so that transfer for substrate plate to enzyme plate provides the correct enzyme with the correct substrate/ATP concentration. Compounds are added to a thawed enzyme plate in the desired format, in single concentrations. Reactions are initiated by transfer of the substrate/ATP mix from the substrate plate. The enzyme plate is incubated for 90 mins at 25 C. The reaction is stopped by addition of 70 ul of Stop Buffer (100 mM HEPES pH 7.5, 0.015% Brij-35, 10 mM EDTA (Sigma, E7889)).
(§5) Reading of the plate in the Profiler is identical to the LC3000, and the ratio between substrate and product peaks provides the activity of the enzyme in that well. This is best represented by a plate heat map which colors each well by percent inhibition as compared to positive and negative controls (no inhibitors and no ATP respectively).
(§6) In the following Tables 3a-4-b, which show the results of the desktop profiler measurements, “+” means 50-70% inhibition, “++” means 70-90% inhibition, and “+++” means >90% inhibition. The enzymes tested for profiling were ABL, AKT1, AKT2, AurA, CHK1, CHK2, CK1d, Erk1, Erk2, FYN, GSK3b, INSR, LCK, LYN, MAPKAPK2, MET, MSK1, p38a, PKA, PKCz, PKD2, PRAK, RSK1 and SRC.

AurA = target: T3, AurA (Homo sapiens, UniProt O14965); experiment: Desktop Profiler kinase panel, AurA; conditions: 10 micromolar concentration of the compound; read-out: Percent Inhibition AurA
T3 construct: purchased Caliper Life Sciences
T3 sequence (O14965 1-403): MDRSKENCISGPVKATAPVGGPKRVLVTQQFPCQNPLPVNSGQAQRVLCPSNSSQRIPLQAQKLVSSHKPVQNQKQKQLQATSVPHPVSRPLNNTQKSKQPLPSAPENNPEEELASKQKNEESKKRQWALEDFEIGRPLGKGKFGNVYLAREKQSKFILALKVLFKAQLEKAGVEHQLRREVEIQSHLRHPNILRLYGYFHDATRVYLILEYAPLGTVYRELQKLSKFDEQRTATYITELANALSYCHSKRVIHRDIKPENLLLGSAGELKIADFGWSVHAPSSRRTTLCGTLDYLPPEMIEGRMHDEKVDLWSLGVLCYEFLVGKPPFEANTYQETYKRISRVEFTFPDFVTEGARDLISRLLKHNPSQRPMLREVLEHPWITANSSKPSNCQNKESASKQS
Protocol: as §1, §4, §5, §6

Erk1 = target: T4, Erk1 (Homo sapiens, UniProt P27361); experiment: Desktop Profiler kinase panel, Erk1; conditions: 10 micromolar concentration of the compound; read-out: Percent Inhibition Erk1
T4 construct: purchased Caliper Life Sciences
T4 sequence (P27361 whole entry, species assumed): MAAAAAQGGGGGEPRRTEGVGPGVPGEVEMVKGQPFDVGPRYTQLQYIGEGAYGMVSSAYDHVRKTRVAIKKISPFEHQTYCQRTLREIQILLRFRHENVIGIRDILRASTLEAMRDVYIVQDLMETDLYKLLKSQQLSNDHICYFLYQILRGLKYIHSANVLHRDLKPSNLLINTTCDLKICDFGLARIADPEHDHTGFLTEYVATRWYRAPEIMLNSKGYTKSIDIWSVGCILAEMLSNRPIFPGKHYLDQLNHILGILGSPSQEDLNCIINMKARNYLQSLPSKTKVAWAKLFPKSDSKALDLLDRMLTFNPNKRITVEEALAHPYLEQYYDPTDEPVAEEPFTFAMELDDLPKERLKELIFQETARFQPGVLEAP
Protocol: as §1, §2, §3

Erk2 = target: T5, Erk2 (Homo sapiens, UniProt P28482); experiment: Desktop Profiler kinase panel, Erk2; conditions: 10 micromolar concentration of the compound; read-out: Percent Inhibition Erk2
T5 construct: purchased Caliper Life Sciences
T5 sequence (P28482 whole entry, species assumed): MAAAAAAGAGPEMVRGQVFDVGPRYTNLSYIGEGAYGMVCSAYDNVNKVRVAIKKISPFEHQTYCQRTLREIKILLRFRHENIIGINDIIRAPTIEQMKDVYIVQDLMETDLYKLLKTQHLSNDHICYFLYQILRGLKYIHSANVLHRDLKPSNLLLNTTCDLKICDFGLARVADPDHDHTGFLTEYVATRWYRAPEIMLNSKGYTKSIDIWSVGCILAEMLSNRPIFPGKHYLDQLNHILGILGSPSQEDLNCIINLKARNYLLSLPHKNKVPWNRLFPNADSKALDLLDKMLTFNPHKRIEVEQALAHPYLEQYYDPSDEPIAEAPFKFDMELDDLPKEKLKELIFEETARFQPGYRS
Protocol: as §1, §2, §3

FYN = target: T6, FYN (Homo sapiens, UniProt P06241); experiment: Desktop Profiler kinase panel, FYN; conditions: 10 micromolar concentration of the compound; read-out: Percent Inhibition FYN
T6 construct: purchased Caliper Life Sciences
T6 sequence (P06241 whole entry, species assumed): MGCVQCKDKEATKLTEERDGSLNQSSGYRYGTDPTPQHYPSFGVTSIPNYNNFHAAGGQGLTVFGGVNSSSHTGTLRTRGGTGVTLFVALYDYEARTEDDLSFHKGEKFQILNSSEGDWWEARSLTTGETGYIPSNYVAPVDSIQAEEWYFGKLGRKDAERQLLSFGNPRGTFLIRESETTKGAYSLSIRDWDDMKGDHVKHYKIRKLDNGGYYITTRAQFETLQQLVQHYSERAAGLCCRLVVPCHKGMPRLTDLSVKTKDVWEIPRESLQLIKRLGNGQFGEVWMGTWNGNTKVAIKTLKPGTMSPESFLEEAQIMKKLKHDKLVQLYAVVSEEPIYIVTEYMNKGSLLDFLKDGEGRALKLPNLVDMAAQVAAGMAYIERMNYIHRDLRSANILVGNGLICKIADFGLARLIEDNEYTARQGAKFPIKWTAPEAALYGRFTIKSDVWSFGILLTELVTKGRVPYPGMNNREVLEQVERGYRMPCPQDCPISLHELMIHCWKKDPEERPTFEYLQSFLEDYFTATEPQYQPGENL
Protocol: as §1, §4, §5, §6

GSK3b = target: T7, GSK3b (Homo sapiens, UniProt P49841); experiment: Desktop Profiler kinase panel, GSK3b; conditions: 10 micromolar concentration of the compound; read-out: Percent Inhibition GSK3b
T7 construct: purchased Caliper Life Sciences
T7 sequence (P49841 whole entry, species assumed): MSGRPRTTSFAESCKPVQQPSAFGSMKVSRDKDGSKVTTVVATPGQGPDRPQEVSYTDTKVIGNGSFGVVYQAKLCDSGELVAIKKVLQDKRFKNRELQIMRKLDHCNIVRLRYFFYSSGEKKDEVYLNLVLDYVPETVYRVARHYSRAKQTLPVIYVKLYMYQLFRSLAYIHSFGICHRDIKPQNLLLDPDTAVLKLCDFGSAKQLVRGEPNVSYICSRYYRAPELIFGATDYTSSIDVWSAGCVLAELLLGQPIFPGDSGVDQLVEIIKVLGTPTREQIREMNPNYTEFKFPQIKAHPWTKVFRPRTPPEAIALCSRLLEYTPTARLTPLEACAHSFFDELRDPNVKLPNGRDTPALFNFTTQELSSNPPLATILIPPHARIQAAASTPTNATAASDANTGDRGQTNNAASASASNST
Protocol: as §1, §4, §5, §6

LCK = target: T8, LCK (Homo sapiens, UniProt P06239); experiment: Desktop Profiler kinase panel, LCK; conditions: 10 micromolar concentration of the compound; read-out: Percent Inhibition LCK
T8 construct: purchased Caliper Life Sciences
T8 sequence (P06239 whole entry, species assumed): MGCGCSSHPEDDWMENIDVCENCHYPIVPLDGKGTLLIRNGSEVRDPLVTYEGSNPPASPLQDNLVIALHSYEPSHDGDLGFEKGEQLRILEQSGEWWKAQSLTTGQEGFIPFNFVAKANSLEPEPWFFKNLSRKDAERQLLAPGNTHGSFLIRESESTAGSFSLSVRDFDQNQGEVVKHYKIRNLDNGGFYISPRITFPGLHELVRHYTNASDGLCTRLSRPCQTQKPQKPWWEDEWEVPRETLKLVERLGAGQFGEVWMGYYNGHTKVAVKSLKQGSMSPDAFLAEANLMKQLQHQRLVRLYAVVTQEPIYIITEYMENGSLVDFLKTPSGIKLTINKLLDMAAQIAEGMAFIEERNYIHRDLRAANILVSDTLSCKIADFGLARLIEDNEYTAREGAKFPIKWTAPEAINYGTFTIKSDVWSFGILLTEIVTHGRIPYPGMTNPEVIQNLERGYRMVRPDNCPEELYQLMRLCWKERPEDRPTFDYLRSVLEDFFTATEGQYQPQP
Protocol: as §1, §4, §5, §6

MSK1 = target: T9, MSK1 (Homo sapiens, UniProt O75582); experiment: Desktop Profiler kinase panel, MSK1; conditions: 10 micromolar concentration of the compound; read-out: Percent Inhibition MSK1
T9 construct: purchased Caliper Life Sciences
T9 sequence (O75582 whole entry, species assumed): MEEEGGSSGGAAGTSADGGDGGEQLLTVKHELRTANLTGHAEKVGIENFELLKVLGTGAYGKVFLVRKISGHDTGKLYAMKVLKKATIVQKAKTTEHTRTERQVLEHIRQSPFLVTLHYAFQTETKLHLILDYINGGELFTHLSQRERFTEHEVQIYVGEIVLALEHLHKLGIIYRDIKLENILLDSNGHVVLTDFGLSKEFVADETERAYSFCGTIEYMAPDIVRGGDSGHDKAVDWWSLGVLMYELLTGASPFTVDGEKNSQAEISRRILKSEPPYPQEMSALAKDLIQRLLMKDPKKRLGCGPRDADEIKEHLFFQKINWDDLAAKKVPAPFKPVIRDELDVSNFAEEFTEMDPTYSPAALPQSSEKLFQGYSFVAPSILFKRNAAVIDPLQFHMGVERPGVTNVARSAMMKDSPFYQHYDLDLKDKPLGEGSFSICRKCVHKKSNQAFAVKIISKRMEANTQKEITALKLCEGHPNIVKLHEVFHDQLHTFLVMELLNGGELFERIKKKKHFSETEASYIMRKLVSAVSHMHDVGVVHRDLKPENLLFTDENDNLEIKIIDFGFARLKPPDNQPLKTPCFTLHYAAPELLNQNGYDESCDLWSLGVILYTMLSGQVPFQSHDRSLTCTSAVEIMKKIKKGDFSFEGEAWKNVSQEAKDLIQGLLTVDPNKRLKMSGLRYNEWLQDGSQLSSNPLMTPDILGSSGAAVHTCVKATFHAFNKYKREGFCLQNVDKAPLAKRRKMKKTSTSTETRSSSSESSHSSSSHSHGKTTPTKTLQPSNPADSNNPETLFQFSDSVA
Protocol: as §1, §4
as §5, with “respectively). […]” for “respectively).”

PKA = target: T10, PKA (Homo sapiens, UniProt P17612); experiment: Desktop Profiler kinase panel, PKA; conditions: 10 micromolar concentration of the compound; read-out: Percent Inhibition PKA
T10 construct: purchased Caliper Life Sciences
Protocol: as §1, §4, §5, §6

MAPKAPK2 = target: T11, MAPKAPK2 (Homo sapiens, UniProt P49137); experiment: Desktop Profiler kinase panel, MAPKAPK2; conditions: 10 micromolar concentration of the compound; read-out: Percent Inhibition MAPKAPK2
T11 construct: purchased Caliper Life Sciences
T11 sequence (P49137 whole entry, species assumed): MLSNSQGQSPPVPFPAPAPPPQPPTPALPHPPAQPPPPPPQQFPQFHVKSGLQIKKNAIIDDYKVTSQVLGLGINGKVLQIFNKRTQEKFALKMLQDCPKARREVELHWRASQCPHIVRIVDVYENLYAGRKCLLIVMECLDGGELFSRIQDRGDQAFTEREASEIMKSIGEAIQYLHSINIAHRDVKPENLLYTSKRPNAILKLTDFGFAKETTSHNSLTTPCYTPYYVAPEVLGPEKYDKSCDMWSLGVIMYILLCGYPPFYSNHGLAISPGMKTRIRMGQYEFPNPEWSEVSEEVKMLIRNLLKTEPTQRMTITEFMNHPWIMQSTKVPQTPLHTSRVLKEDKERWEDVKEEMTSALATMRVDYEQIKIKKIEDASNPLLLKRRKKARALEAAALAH
Protocol: as §1, §2, §3

MET = target: T12, MET (Homo sapiens, UniProt P08581); experiment: Desktop Profiler kinase panel, MET; conditions: 10 micromolar concentration of the compound; read-out: Percent Inhibition MET
T12 construct: purchased Caliper Life Sciences
Protocol: as §1, §2, §3

p38a = target: T13, p38a (Homo sapiens, UniProt Q16539); experiment: Desktop Profiler kinase panel, p38a; conditions: 10 micromolar concentration of the compound; read-out: Percent Inhibition p38a
T13 construct: purchased Caliper Life Sciences
Protocol: as §1, §2, §3

PKCz = target: T14, PKCz (Homo sapiens, UniProt Q05513); experiment: Desktop Profiler kinase panel, PKCz; conditions: 10 micromolar concentration of the compound; read-out: Percent Inhibition PKCz
T14 construct: purchased Caliper Life Sciences
T14 sequence (Q05513 whole entry): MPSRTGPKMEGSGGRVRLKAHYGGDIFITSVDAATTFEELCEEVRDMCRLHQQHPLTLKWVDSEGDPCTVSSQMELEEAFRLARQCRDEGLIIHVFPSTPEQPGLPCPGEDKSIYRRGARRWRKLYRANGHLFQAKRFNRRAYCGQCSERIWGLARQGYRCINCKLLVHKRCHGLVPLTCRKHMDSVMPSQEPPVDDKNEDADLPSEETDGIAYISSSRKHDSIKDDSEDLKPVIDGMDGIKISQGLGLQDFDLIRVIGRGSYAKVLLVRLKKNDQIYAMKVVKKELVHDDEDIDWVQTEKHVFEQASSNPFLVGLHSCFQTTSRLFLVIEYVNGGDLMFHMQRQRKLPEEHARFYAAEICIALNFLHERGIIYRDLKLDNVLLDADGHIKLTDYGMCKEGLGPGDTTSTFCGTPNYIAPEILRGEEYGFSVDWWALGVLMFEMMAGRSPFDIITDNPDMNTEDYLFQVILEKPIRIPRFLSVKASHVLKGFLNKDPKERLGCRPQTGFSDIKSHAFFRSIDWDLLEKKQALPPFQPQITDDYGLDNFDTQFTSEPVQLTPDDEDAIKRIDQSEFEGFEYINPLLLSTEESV
Protocol: as §1, §2, §3

T1 sequence (P31749 whole entry, species assumed): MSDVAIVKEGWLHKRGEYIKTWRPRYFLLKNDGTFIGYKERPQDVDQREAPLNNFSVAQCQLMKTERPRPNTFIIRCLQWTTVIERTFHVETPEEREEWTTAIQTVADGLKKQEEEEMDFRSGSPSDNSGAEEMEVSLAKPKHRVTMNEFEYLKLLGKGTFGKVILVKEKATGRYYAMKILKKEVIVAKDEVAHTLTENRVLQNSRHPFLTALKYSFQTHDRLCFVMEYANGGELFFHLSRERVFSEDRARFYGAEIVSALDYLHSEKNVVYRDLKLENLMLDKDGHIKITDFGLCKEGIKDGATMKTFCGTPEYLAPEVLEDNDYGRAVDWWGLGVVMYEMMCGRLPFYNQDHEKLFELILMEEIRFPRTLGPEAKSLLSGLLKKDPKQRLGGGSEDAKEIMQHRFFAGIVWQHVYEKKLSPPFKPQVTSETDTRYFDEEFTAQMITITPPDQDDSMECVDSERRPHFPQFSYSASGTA

inhibition at 10 µM (AKT1) | inhibition at 10 µM (AKT2) | inhibition at 10 µM (AurA) | inhibition at 10 µM (Erk1) | inhibition at 10 µM (Erk2) | inhibition at 10 µM (FYN) | inhibition at 10 µM (GSK3b) | inhibition at 10 µM (LCK) | inhibition at 10 µM (MSK1) | inhibition at 10 µM (PKA) | inhibition at 10 µM (MAPKAPK2) | inhibition at 10 µM (MET) | inhibition at 10 µM (p38a) | inhibition at 10 µM (PKCz) | SMILES
70 to 90% | > 90% | > 90% | 70 to 90% | 70 to 90% | 70 to 90% | 70 to 90% | > 90% | 70 to 90% | > 90% |  |  |  |  | O=c1[nH]c2ncccc2c2cc(Nc3cccc(F)c3)ccc12 [Example 31, 9-(3-Fluoro-phenylamino)-5H-benzo[c][1,8]naphthyridin-6-one]
> 90% | > 90% | > 90% | 70 to 90% | 70 to 90% | > 90% | > 90% | > 90% | > 90% | > 90% | 50 to 70% | > 90% | 50 to 70% | 50 to 70% | CC(=O)Nc1ccc(Oc2ccc3c(=O)[nH]c4ncccc4c3c2)cc1 [Example 81, N-[4-(6-Oxo-5,6-dihydro-benzo[c][1,8]naphthyridin-9-yloxy)-phenyl]-acetamide]
 | 50 to 70% | > 90% |  |  | > 90% | 70 to 90% |  | 50 to 70% | 70 to 90% | > 90% |  |  |  | NC(=O)c1ccc(Oc2ccc3c(=O)[nH]c4ncccc4c3c2)cc1 [Example 82]
